From patent US8772490B2, “Optically active diazabicyclooctane derivatives and process for preparing the same” (Meiji Seika Pharma Co., Ltd., priority 2010, dated 2014)

Columns and labels:
AmpC β-lactamase = AmpC β-lactamase (Pseudomonas aeruginosa (strain ATCC 15692 / DSM 22644 / CIP 104116 / JCM 14847 / LMG 12228 / 1C / PRS 101 / PAO1), UniProt P24735); type: biochemical
Procedure: The biological activity of the above-mentioned compounds represented by formulae (H) and (s) can be measured as follows. […] Further, using constitutive AmpC producing Pseudomonas aeruginosa, a combined antimicrobial activity (MIC) was measured when using Piperacillin (PIPC) as an antibiotic and the compound of formula (H) or (s) in combination to check whether or not the antimicrobial activity of PIPC could be restored.
Using P. aeruginosa PAO1 genome as a template, a DNA for encoding an AmpC β-lactamase domain excluding a signal peptide was amplified with PCR. This PCR product was incorporated into pET-28b(+)vector (Merck), introduced into E. coli BL21 (Merck), and, under induction of 1 mM isopropyl-β-D-(−)-thiogalactopyranoside (Nacalai Tesque), cultured overnight at 20° C. to express AmpC. After the bacterial cell was collected. AmpC was purified from the cell extract obtained by ultrasonic treatment, using CM Sepharose Fast Flow (GE Healthcare) and HiTrap Heparin HP (GE Healthcare) at 4° C.

[1] = test system: P. aeruginosa PAO1 variant, which constitutively expresses AmpC; experiment: Combinatorial antibacterial activity: MIC of piperacillin (PIPC) with test compound, agar plate dilution; type: cell-based, Pseudomonas aeruginosa; settings: for MIC (antimicrobial activity of Piperacillin (PIPC) in combination with the compound): Table 7, PIPC in combination with 4 μg/mL of the compound
Procedure: The biological activity of the above-mentioned compounds represented by formulae (H) and (s) can be measured as follows. Specifically, an enzyme inhibitory activity (IC50 value) against AmpC enzyme which is a class C β-lactamase was determined using nitrocephin as a substrate to check whether or not the compounds had the inhibitory activity and compare the activities of them. Further, using constitutive AmpC producing Pseudomonas aeruginosa, a combined antimicrobial activity (MIC) was measured when using Piperacillin (PIPC) as an antibiotic and the compound of formula (H) or (s) in combination to check whether or not the antimicrobial activity of PIPC could be restored.
The combinatorial effect of the test compound with a β-lactam agent against bacteria was evaluated using AmpC constitutive expression strain selected from P. aeruginosa PAO1 through agent exposure. Using piperacillin (PIPC, Sigma-Aldrich) as a β-lactam agent, measurement was conducted by agar plate dilution process in which minimal inhibitory concentration (MIC) of PIPC is based on Clinical and Laboratory Standards Institute (CLSI process). That is, an agara plate containing 4 μg/mL (final concentration) of test compound and PIPC at each concentration in Mueller-Hinton agar (Becton, Dickinson and Company) was made, and bacteria cultured overnight in cation-adjusted Muller-Hinton broth (Becton, Dickinson and Company) were adjusted in the same medium so as to have 10^4 CFU/spot and inoculated on a plate containing an agent. This plate containing an agent was cultured overnight at 35° C., and the minimum agent concentration in which no growth of bacteria is observed was determined to be MIC.

Sequence of AmpC β-lactamase (P24735 27-397): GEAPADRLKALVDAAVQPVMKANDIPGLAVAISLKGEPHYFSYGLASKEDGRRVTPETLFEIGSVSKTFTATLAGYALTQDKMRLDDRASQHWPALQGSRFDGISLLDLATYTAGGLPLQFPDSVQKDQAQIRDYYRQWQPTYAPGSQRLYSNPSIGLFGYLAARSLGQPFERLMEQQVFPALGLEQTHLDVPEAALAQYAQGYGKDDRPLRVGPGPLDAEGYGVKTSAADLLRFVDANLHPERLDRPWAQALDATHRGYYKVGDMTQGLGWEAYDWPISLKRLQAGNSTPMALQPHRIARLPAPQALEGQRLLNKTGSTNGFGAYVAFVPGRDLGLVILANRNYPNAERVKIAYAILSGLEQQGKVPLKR

Row | Compound | β-lactamase enzyme inhibitory activity (in words) (AmpC β-lactamase) | effect of the compound in combination with an antibiotic (in words) [1] | MIC (antimicrobial activity of Piperacillin (PIPC) in combination with the compound) [1] [µg/mL]
1 | NC(=O)[C@H]1CC[C@H]2CN1C(=O)N2OS(=O)(=O)[O-].[Na+] [Example 24, (2R,5S)-1,6-Diazabicyclo[3.2.1]octane-2-carboxamide, 7-oxo-6-(sulfoxy)-monosodium salt] | exhibited no activity | exhibited no activity | 64
2 | C[C@]1(Cn2ccnn2)[C@H](C(=O)[O-])N2C(=O)C[C@H]2S1(=O)=O.[Na+] [TAZ, Tazobactam, reference compound] | – | – | 64
3 | NC(=O)[C@@H]1CC[C@@H]2CN1C(=O)N2OS(=O)(=O)[O-].[Na+] [Example 23, (2S,5R)-1,6-Diazabicyclo[3.2.1]octane-2-carboxamide, 7-oxo-6-(sulfoxy)-monosodium salt] | exhibited the activities | exhibited the activities | 4
